Assays:
α-amylase = molecular target: T1, α-amylase (Aspergillus oryzae, UniProt P0C1B3); experiment: biochemical; assay type: biochemical; conditions: for IC50: α-amylase from Aspergillus oryzae, starch substrate, 37 °C, pH 6.9, mean ± standard error, read-out: α-Amylase Inhibitory Assay (IC50) (converted)
T1 construct: purchased Sigma-Aldrich
Description: The inhibitory effect of MA and MB on α-amylase was assessed by starch-iodine method with a modified model as follows: in each well of a microplate (U-shape, Greiner Bio-one, NC, USA), 20 µL of each either MA or MB were pre-incubated with 20 µL of 1 U/mL α-amylase solution (from Aspergillus oryzae, Sigma-Aldrich, St. Louis, MO, USA) at 37 °C for 10 min. The reaction was initiated by pipetting 30 µL of starch (0.5% in deionized water) (soluble ACS reagent, Sigma-Aldrich, St. Louis, MO, USA). After 6 min incubation at 37 °C, an aliquot of 20 µL of hydrochloric acid (1 M) were added to stop reaction, followed by 120 µL of 0.25 mM aqueous iodine solution. The absorbance at 565 nm was read by a microplate reader (Multiskan^TM Microplate Spectrophotometer, Thermo Fisher Scientific, Osaka, Japan). The inhibitory activity of MA and MB on α-amylase was performed as the inhibition percentage that was calculated by the following formula:% inhibition = (A − C)/(B − C) × 100(2) where A is the absorbance of reaction with presence of MA or MB, B is the absorbance of reaction without enzyme, C is the absorbance of reaction with absence of the momilactones. […] Dilutions of test samples and dissolutions of enzyme used 20 mM sodium phosphate buffer (pH 6.9 comprising of 6 mM sodium chloride). α-Amylase solution and soluble starch solution were prepared and used on the day of experiment.

α-glucosidase = molecular target: T2, α-glucosidase (Saccharomyces cerevisiae, UniProt P53341); experiment: α-Glucosidase inhibition assay (pNPG substrate); assay type: biochemical; conditions: for suppressive property on α-glucosidase relative to acarbose (fold greater than acarbose): ratio of IC50 values versus acarbose; for IC50: α-glucosidase from Saccharomyces cerevisiae, pNPG substrate, 25 °C, pH 7, mean ± standard error, read-out: α-Glucosidase Inhibitory Assay (IC50) (converted)
T2 construct: purchased Sigma-Aldrich
T2 sequence (P53341 whole entry): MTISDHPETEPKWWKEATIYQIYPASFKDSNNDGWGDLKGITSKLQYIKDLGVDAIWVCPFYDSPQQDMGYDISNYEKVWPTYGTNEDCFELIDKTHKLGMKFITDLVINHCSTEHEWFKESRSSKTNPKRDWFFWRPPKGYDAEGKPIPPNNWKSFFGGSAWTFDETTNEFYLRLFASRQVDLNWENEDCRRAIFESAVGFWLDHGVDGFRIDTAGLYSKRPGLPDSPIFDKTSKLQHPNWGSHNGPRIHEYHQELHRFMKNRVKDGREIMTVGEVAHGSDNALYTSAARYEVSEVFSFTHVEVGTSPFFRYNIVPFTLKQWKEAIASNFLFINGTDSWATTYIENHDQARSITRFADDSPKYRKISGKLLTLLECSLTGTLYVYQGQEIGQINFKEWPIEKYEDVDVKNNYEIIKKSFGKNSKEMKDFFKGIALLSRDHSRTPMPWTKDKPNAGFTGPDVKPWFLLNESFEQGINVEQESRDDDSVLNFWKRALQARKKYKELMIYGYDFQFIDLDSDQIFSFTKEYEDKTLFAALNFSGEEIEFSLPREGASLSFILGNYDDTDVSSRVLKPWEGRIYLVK
Description: The anti-α-glucosidase activity of MA and MB was evaluated using a method as described previously with some alterations. In brief, an amount of 20 µL methanolic stock solution of MA and MB were pre-mixed with an equal volume of 0.1 M potassium phosphate buffer (pH 7) and 40 µL of α-glucosidase (from Saccharomyces cerevisiae, Sigma-Aldrich, St. Louis, MO, USA) enzyme solution (0.5 U/mL in 0.1 M potassium phosphate buffer, pH 7). After 6 min incubation at 25 °C, a 20 µL aliquot of 5 mM p-nitrophenyl-α-D-glucopyranoside (pNPG) substrate (in 0.1 M potassium phosphate buffer, pH 7) was added to each reaction and the mixture was incubated for another 8 min. Eventually, the reaction was terminated by adding 100 µL of 0.2 M Na2CO3, and absorbance was recorded at 405 nm. […] IC50 value was obtained by the same way as above.

[1] = ratio of IC50 values, MB versus MA

SMILES	IC50 (α-amylase) [µM]	suppressive property on α-glucosidase relative to acarbose (fold greater than acarbose) (α-glucosidase) [fold]	IC50 (α-glucosidase) [µM]	inhibitory activity on α-amylase of MB relative to MA (fold stronger) (α-amylase; [1]) [fold]	inhibitory activity on α-glucosidase of MB relative to MA (fold stronger) (α-glucosidase; [1]) [fold]
C=C[C@]1(C)CC[C@H]2C(=C[C@H]3OC(=O)[C@@]4(C)C(=O)CC[C@@]2(C)[C@@H]34)C1 [MA, momilactone A]	848	2.5	3150	–	–
C=CC1(C)CCC2C(=CC3OC(=O)C4(C)C3C23CCC4(O)OC3)C1 (centres unmarked) [MB, momilactone B]	444	4.2	1850	1.8	1.6
